Tests used:
Conditions in all cases: treatment: drug + dasatinib (fixed dose, not stated); 5 days
A498 [1] = test: GI50 of drug in presence of dasatinib; higher = less potent
Description: (§1)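 Primary HTS combination arm: 8 RCC cell lines treated with 8 doses (up to 10 uM) of each library drug plus a fixed dose of dasatinib (dose not stated) for 5 days; viability read by CellTiter-Glo and normalised to DMSO. GI50 was fitted with XLfit, AUC is the area under the dose-response curve, and minimum viability is the lowest fraction of DMSO viability across doses.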

786-O [2] = test: as above
Description: as §1

ACHN [3] = test: as above
Description: as §1

CAKI-1 [4] = test: as above
Description: as §1

TK-10 [5] = test: as above
Description: as §1

UO-31 [6] = test: as above
Description: as §1

A498 [7] = test: AUC of dose-response viability curve, drug + dasatinib, normalised to DMSO (arbitrary (AUC of normalised viability)); higher = less growth inhibition
Description: as §1

786-O [8] = test: as above
Description: as §1

ACHN [9] = test: as above
Description: as §1

CAKI-1 [10] = test: as above
Description: as §1

TK-10 [11] = test: as above
Description: as §1

769-P [12] = test: as above
Description: as §1

SN12C [13] = test: as above
Description: as §1

UO-31 [14] = test: as above
Description: as §1

A498 [15] = test: minimum viability across doses, drug + dasatinib, relative to DMSO (fraction); higher = less growth inhibition
Description: as §1

786-O [16] = test: as above
Description: as §1

ACHN [17] = test: as above
Description: as §1

CAKI-1 [18] = test: as above
Description: as §1

TK-10 [19] = test: as above
Description: as §1

769-P [20] = test: as above
Description: as §1

SN12C [21] = test: as above
Description: as §1

UO-31 [22] = test: as above
Description: as §1

769-P [23] = test: GI50 of drug in presence of dasatinib; higher = less potent
Description: as §1

SN12C [24] = test: as above
Description: as §1

Compound | GI50 of drug (A498 [1]) [nM] | GI50 of drug (786-O [2]) [nM] | GI50 of drug (ACHN [3]) [nM] | GI50 of drug (CAKI-1 [4]) [nM] | GI50 of drug (TK-10 [5]) [nM] | GI50 of drug (UO-31 [6]) [nM] | AUC of dose-response viability curve (A498 [7]) | AUC of dose-response viability curve (786-O [8]) | AUC of dose-response viability curve (ACHN [9]) | AUC of dose-response viability curve (CAKI-1 [10]) | AUC of dose-response viability curve (TK-10 [11]) | AUC of dose-response viability curve (769-P [12]) | AUC of dose-response viability curve (SN12C [13]) | AUC of dose-response viability curve (UO-31 [14]) | minimum viability across doses (A498 [15]) | minimum viability across doses (786-O [16]) | minimum viability across doses (ACHN [17]) | minimum viability across doses (CAKI-1 [18]) | minimum viability across doses (TK-10 [19]) | minimum viability across doses (769-P [20]) | minimum viability across doses (SN12C [21]) | minimum viability across doses (UO-31 [22]) | GI50 of drug (769-P [23]) [nM] | GI50 of drug (SN12C [24]) [nM]
CO[C@H]1CC2CC[C@@H](C)[C@@](O)(O2)C(=O)C(=O)N2CCCC[C@H]2C(=O)O[C@H]([C@H](C)C[C@@H]2CCC(OC(=O)C(C)(CO)CO)[C@H](OC)C2)CC(=O)[C@H](C)/C=C(\C)[C@@H](O)[C@@H](OC)C(=O)[C@H](C)C[C@H](C)/C=C/C=C/C=C/1C (stereo in doubt) [Temsirolimus (Torisel)] + Cc1nc(Nc2ncc(C(=O)Nc3c(C)cccc3Cl)s2)cc(N2CCN(CCO)CC2)n1 [dasatinib] | > 10000 | < 3 | 3.25 | 24.2 | 512 | 69.9 | 1.99 | 1.2 | 1.27 | 1.42 | 1.97 | 1.7 | 1.75 | 1.59 | 0.505 | 0.304 | 0.296 | 0.273 | 0.393 | 0.402 | 0.446 | 0.226 | – | –
O=C1NC(=O)/C(=C/c2ccc(-c3ccc(F)cc3O)o2)S1 + Cc1nc(Nc2ncc(C(=O)Nc3c(C)cccc3Cl)s2)cc(N2CCN(CCO)CC2)n1 [dasatinib] | > 10000 | – | > 10000 | > 10000 | > 10000 | > 10000 | 3.96 | 2.08 | 2.15 | 2.4 | 2.51 | 2.41 | 2.41 | 3.97 | 1.06 | 0.449 | 0.567 | 0.628 | 0.649 | 0.532 | 0.651 | 1.02 | > 10000 | > 10000
Cc1ccc(NC(=O)c2cccc(N(C)C)c2)cc1NC(=O)c1ccc(O)cc1 + Cc1nc(Nc2ncc(C(=O)Nc3c(C)cccc3Cl)s2)cc(N2CCN(CCO)CC2)n1 [dasatinib] | > 10000 | – | > 10000 | > 10000 | > 10000 | > 10000 | 3.67 | 2 | 2.1 | 2.43 | 2.37 | 2.41 | 2.52 | 4.5 | 0.932 | 0.388 | 0.54 | 0.65 | 0.609 | 0.639 | 0.69 | 1.02 | > 10000 | > 10000
O=C1NC(=O)C(c2ccccc2[N+](=O)[O-])=C1Nc1ccc(O)c(Cl)c1 + Cc1nc(Nc2ncc(C(=O)Nc3c(C)cccc3Cl)s2)cc(N2CCN(CCO)CC2)n1 [dasatinib] | > 10000 | – | > 10000 | > 10000 | > 10000 | > 10000 | 3.1 | 1.73 | 2.02 | 2.31 | 2.42 | 2.42 | 2.5 | 3.6 | 0.789 | 0.339 | 0.506 | 0.591 | 0.646 | 0.629 | 0.67 | 0.748 | > 10000 | > 10000
Cc1cnc(NC(=O)Nc2cc(Br)c(C)cc2OC[C@@H]2CNCCO2)cn1 + Cc1nc(Nc2ncc(C(=O)Nc3c(C)cccc3Cl)s2)cc(N2CCN(CCO)CC2)n1 [dasatinib] | 2120 | 172 | 36.9 | 388 | 559 | 833 | 2.99 | 1.43 | 1.21 | 1.71 | 2.01 | 1.71 | 2.27 | 3.07 | 0.0633 | 0.00234 | 0.0412 | 0.0829 | 0.162 | 0.0737 | 0.113 | 0.00521 | – | 2090
C=CC(=O)N1CCC[C@@H](n2nc(-c3ccc(Oc4ccccc4)cc3)c3c(N)ncnc32)C1 + Cc1nc(Nc2ncc(C(=O)Nc3c(C)cccc3Cl)s2)cc(N2CCN(CCO)CC2)n1 [dasatinib] | > 10000 | – | 81.4 | 3280 | 264 | 8830 | 4.62 | 2 | 1.61 | 2.18 | 1.83 | 1.72 | 2.28 | 3.83 | 0.927 | 0.435 | 0.295 | 0.19 | 0.189 | 0.124 | 0.496 | 0.194 | 212 | > 10000
CNC(=O)CN1CCC(Oc2cc3c(Nc4cccc(Cl)c4F)ncnc3cc2OC)CC1 [AZD8931] + Cc1nc(Nc2ncc(C(=O)Nc3c(C)cccc3Cl)s2)cc(N2CCN(CCO)CC2)n1 [dasatinib] | 1040 | – | 11.4 | 2990 | 477 | 4660 | 2.24 | 1.88 | 1.24 | 2.11 | 1.99 | 1.69 | 2.3 | 2.96 | 0.284 | 0.262 | 0.233 | 0.332 | 0.277 | 0.15 | 0.569 | 0.344 | 135 | > 10000
COc1cc2ncnc(Nc3ccc(F)c(Cl)c3)c2cc1OCCCN1CCOCC1 [Gefitinib (Iressa)] + Cc1nc(Nc2ncc(C(=O)Nc3c(C)cccc3Cl)s2)cc(N2CCN(CCO)CC2)n1 [dasatinib] | > 10000 | > 10000 | 85.7 | 1730 | 1070 | 6180 | 3.49 | 2.56 | 1.56 | 2.08 | 2.22 | 1.72 | 2.49 | 2.9 | 0.808 | 0.56 | 0.187 | 0.169 | 0.267 | 0.177 | 0.588 | 0.3 | – | > 10000
Cc1ccc(NC(=O)c2ccc(CN3CCN(C)CC3)cc2)cc1Nc1nccc(-c2cccnc2)n1 [Imatinib (Gleevec)] + Cc1nc(Nc2ncc(C(=O)Nc3c(C)cccc3Cl)s2)cc(N2CCN(CCO)CC2)n1 [dasatinib] | > 10000 | – | > 10000 | 8890 | > 10000 | > 10000 | 3.24 | 1.67 | 2.06 | 2.22 | 2.45 | 2.43 | 2.55 | 3.84 | 0.817 | 0.336 | 0.523 | 0.491 | 0.624 | 0.586 | 0.68 | 0.883 | > 10000 | > 10000
Cl.Cl.NC1(c2ccc(-c3nc4ccn5c(=O)[nH]nc5c4cc3-c3ccccc3)cc2)CCC1 [MK-2206 dihydrochloride] + Cc1nc(Nc2ncc(C(=O)Nc3c(C)cccc3Cl)s2)cc(N2CCN(CCO)CC2)n1 [dasatinib] | > 10000 | 2410 | 24.1 | 111 | 1110 | 1740 | 2.94 | 2.02 | 1.45 | 1.69 | 2.1 | 2.05 | 2.18 | 2.61 | 0.755 | 0.224 | 0.202 | 0.102 | 0.263 | 0.234 | 0.551 | 0.0262 | – | > 10000
Cc1cn(-c2cc(NC(=O)c3ccc(C)c(Nc4nccc(-c5cccnc5)n4)c3)cc(C(F)(F)F)c2)cn1 [Nilotinib (AMN-107)] + Cc1nc(Nc2ncc(C(=O)Nc3c(C)cccc3Cl)s2)cc(N2CCN(CCO)CC2)n1 [dasatinib] | > 10000 | > 10000 | 2890 | 7790 | > 10000 | 4880 | 3.37 | 2.77 | 2 | 2.38 | 2.53 | 1.98 | 2.55 | 3.2 | 0.811 | 0.717 | 0.461 | 0.491 | 0.524 | 0.331 | 0.687 | 0.262 | – | > 10000
CNC(=O)c1cc(Oc2ccc(NC(=O)Nc3ccc(Cl)c(C(F)(F)F)c3)c(F)c2)ccn1 [Regorafenib (BAY 73-4506)] + Cc1nc(Nc2ncc(C(=O)Nc3c(C)cccc3Cl)s2)cc(N2CCN(CCO)CC2)n1 [dasatinib] | 2670 | – | 3320 | 2980 | 5850 | 4410 | 3.1 | 2.26 | 2.05 | 2.24 | 2.45 | 2.3 | 2.47 | 2.77 | 0.415 | 0.471 | 0.153 | 0.125 | 0.415 | 0.37 | 0.434 | 0.122 | 4040 | 7180
CC(C)(O)CC(=O)NCCn1ccc2ncnc(Nc3ccc(Oc4cccc(C(F)(F)F)c4)c(Cl)c3)c21 [TAK-285] + Cc1nc(Nc2ncc(C(=O)Nc3c(C)cccc3Cl)s2)cc(N2CCN(CCO)CC2)n1 [dasatinib] | > 10000 | – | 12.7 | 2350 | 568 | 6240 | 3.25 | 1.8 | 1.28 | 2.15 | 1.99 | 2.18 | 2.44 | 3.97 | 0.83 | 0.338 | 0.172 | 0.311 | 0.346 | 0.22 | 0.556 | 0.224 | 1700 | > 10000
C=CC(=O)Nc1cccc(Oc2nc(Nc3ccc(N4CCN(C)CC4)cc3OC)ncc2Cl)c1 [WZ4002] + Cc1nc(Nc2ncc(C(=O)Nc3c(C)cccc3Cl)s2)cc(N2CCN(CCO)CC2)n1 [dasatinib] | 9590 | 2490 | 74.8 | 1180 | 617 | 1340 | 3.2 | 2.22 | 1.37 | 1.87 | 1.97 | 2.02 | 2.29 | 2.67 | 0.459 | 0.405 | 0.0147 | 0.145 | 0.0404 | 0.2 | 0.0353 | 0.0152 | – | 2420
